Experimental data: US9044427B2, “Compositions and methods for prevention and treatment of wounds” (ONCONOVA THERAPEUTICS, INC, priority 2010, dated 2015)
Values joined by “and” are separate entries in the source; they are usually repeats but may differ in a detail not shown here. Equal entries are not always repeated. “Also recorded” adds a separate entry of the source. Marks after values point to notes of the source that are not given here.

System: mouse model of cutaneous injury
Experiment: Wound healing in skin, mouse model of cutaneous injury (skin punch)
Assay type: in vivo
Conditions: for CT50 (Days), wound half-closure time, Mean: linear regression
Protocol: Test substance ON 01210.Na Solution was evaluated for possible effects on wound healing in a mouse model of cutaneous injury. The test substance was administered subcutaneously (SC) in two dosing regimens: the first was 24 hours and 15 minutes before skin punch, and the second was 4 hours and 15 minutes before skin punch. Percent closure of the wound (%) was determined on days 1, 3, 5, 7, 9, 11, 13, 15, 17, 19, 21 and 22, and the half closure time (CT50) was then obtained. One-way ANOVA followed by Dunnett's test was used to determine significant difference between vehicle control and treated groups at individual time points. Significant differences are considered at P<0.05 level.
ON 01210.Na Solution was provided by Onconova Therapeutics Inc in a preformulated form. Test substance was administered subcutaneously (SC) in two dosing patterns, the first was 24 hours and 15 minutes before skin punch, and the second was 4 hours and 15 minutes before skin punch. The dosing time of vehicle (ON 01210.Na Placebo Solution) was given as the second pattern. The dosing volume was 10 mL/kg.
Animals: Male ICR mice weighing 24±2 g were provided by BioLasco Taiwan (under Charles River Laboratories Technology Licensee). Test animals were housed individually in a cage (29×18×13 cm) after skin injury through experiment. All animals were maintained in a controlled temperature (21-23° C.) and humidity (50%-70%) environment with 12 hours light/dark cycles for at least three days in MDS Pharma Services—Taiwan Laboratory prior to use. Free access to standard lab chow for Mice [MF-18 (Oriental Yeast Co., Ltd., Japan)] and reverse osmosis (RO) water was granted. All aspects of this work including housing, experimentation and disposal of animals were performed in general accordance with the Guide for the Care and Use of Laboratory Animals (National Academy Press, Washington, D.C., 1996).
Groups of 8 ICR male mice weighing 24±2 g were used. During the study, the tested animals were housed in individual cages. Under hexobarbital (90 mg/kg, IP) anesthesia, the shoulder and back region of each animal was shaved. A sharp punch (ID 12 mm) was applied to remove the skin including panniculus carnosus and adherent tissues. Test substance was administered subcutaneously in two dosing patterns, the first was 24 hours and 15 minutes before skin punch, and the second was 4 hours and 15 minutes before skin punch the dosing time of vehicle (ON 01210.Na Placebo Solution) was given as the second dosing pattern. The wound area, traced onto clear plastic sheets, was measured by use of an Image—ProPlus (Media Cybernetics, Version 4.5.0.29) on days 1, 3, 5, 7, 9, 11, 13, 15, 17, 19, 21 and 22. The percent closure of the wound (%) was calculated, and wound half-closure time (CT50) was analyzed by linear regression using Graph-Prism (Graph Software USA). One-way ANOVA followed by Dunnett's test was applied for comparison between the treated and vehicle groups at each measurement time point. Differences are considered statistically significant at P<0.05.
Test substance was administered subcutaneously (SC) in two dosing patterns, the first was 24 hours and 15 minutes before skin punch, and the second was 4 hours and 15 minutes before skin punch; the dosing time of vehicle (ON 01210.Na Placebo Solution) was given as the second pattern. The wound closure (%) and wound half-closure time (CT50) were determined. One-way ANOVA followed by Dunnett's test was applied for comparison between the treated and vehicle groups. *P<0.05, vs. vehicle control.

[1] = 500 mg/kg × 2 SC (−4 hr, −15 min), individual surviving mice N 1-6, sodium salt
[2] = 500 mg/kg × 2 SC (−4 hr, −15 min), individual surviving mice N 1-6
[3] = 500 mg/kg × 2 SC (−4 hr, −15 min before skin punch), mean of surviving animals, sodium salt
[4] = 500 mg/kg × 2 SC (−4 hr, −15 min before skin punch), mean of surviving animals
[5] = 500 mg/kg × 2 SC (−24 hr, −15 min), individual mice N 1-8
[6] = 500 mg/kg × 2 SC (−24 hr, −15 min), individual mice N 1-8, sodium salt
[7] = 500 mg/kg × 2 SC (−24 hr, −15 min before skin punch), group mean
[8] = 500 mg/kg × 2 SC (−24 hr, −15 min before skin punch), group mean, sodium salt

O=C([O-])c1ccc(/C=C/S(=O)(=O)Cc2ccc(Cl)cc2)cc1.[Na+] [ON 01210.Na Solution, (E)-4-carboxystyryl-4-chlorobenzylsulfone sodium salt]
Effect on wound closure vs vehicle control (500 mg/kg SC, 4 hr and 15 min before skin punch, surviving animals, P<0.05 vs vehicle): significant increase in wound closure on days 13 and 15 | Effect on wound closure / wound healing vs vehicle control (500 mg/kg SC, 24 hours and 15 minutes before skin punch, P<0.05 vs vehicle, sodium salt): promoted significant increase in wound closure on days 3, 5, 7, 13, 15 and 17; also recorded: promoted wound healing with significant reduction in CT50 value | The Closure of Wound (%), Individual Value, Day 1 (500 mg/kg × 2 SC (−4 hr, −15 min), individual mice N 1-8): 0.0% | The Closure of Wound (%), Individual Value, Day 3 [1]: 27.9% and 13.0% and 31.4% and 13.4% and 40.5% and 11.7% | The Closure of Wound (%), Individual Value, Day 5 [1]: 40.2% and 23.3% and 37.2% and 24.9% and 48.5% and 18.4% | The Closure of Wound (%), Individual Value, Day 7 [1]: 48.0% and 32.9% and 41.9% and 36.2% and 62.4% and 34.6% | The Closure of Wound (%), Individual Value, Day 9 [1]: 59.0% and 49.2% and 60.3% and 52.9% and 76.3% and 43.0% | The Closure of Wound (%), Individual Value, Day 11 [1]: 65.3% and 68.7% and 73.5% and 77.1% and 79.6% and 66.1% | The Closure of Wound (%), Individual Value, Day 13 [1]: 84.2% and 90.4% and 90.3% and 78.8% and 93.1% and 88.0% | The Closure of Wound (%), Individual Value, Day 15 [1]: 93.4% and 94.6% and 97.2% and 100.0% (2×) and 97.6% | The Closure of Wound (%), Individual Value, Day 17 [1]: 96.7% and 100.0% (5×) | The Closure of Wound (%), Individual Value, Day 19 [2]: 100.0% | The Closure of Wound (%), Individual Value, Day 21 [2]: 100.0% | The Closure of Wound (%), Individual Value, Day 22 [2]: 100.0% | CT50 (Days), Individual Value [1]: 8.0 days and 9.2 days and 7.7 days and 8.9 days and 5.8 days and 9.4 days | Animal died (entry in individual wound-closure tables) (500 mg/kg × 2 SC (−4 hr, −15 min), mice N 7 and 8, Days 3-22, sodium salt): died and Died | The Closure of Wound (%) Day 1, Mean (500 mg/kg × 2 SC (−4 hr, −15 min before skin punch), group mean): 0.0% | The Closure of Wound (%) Day 3, Mean [3]: 23.0% | The Closure of Wound (%) Day 5, Mean [4]: 32.1% | The Closure of Wound (%) Day 7, Mean [4]: 42.7% | The Closure of Wound (%) Day 9, Mean [4]: 56.8% | The Closure of Wound (%) Day 11, Mean [4]: 71.7% | The Closure of Wound (%) Day 13, Mean [3]: 87.5% | The Closure of Wound (%) Day 15, Mean [3]: 97.1% | The Closure of Wound (%) Day 17, Mean [4]: 99.4% | The Closure of Wound (%) Day 19, Mean [4]: 100.0% | The Closure of Wound (%) Day 21, Mean [4]: 100.0% | The Closure of Wound (%) Day 22, Mean [4]: 100.0% | CT50 (Days), wound half-closure time, Mean [3]: 8.2 ± 0.5 days and 8.2 days | The Closure of Wound (%), Individual Value, Day 1 [5]: 0.0% | The Closure of Wound (%), Individual Value, Day 3 [6]: 36.8% and 15.2% and 28.2% and 23.1% and 21.6% and 42.8% and 29.4% and 41.1% | The Closure of Wound (%), Individual Value, Day 5 [6]: 51.5% and 35.7% and 39.1% and 45.1% and 37.7% and 35.6% and 40.9% and 44.4% | The Closure of Wound (%), Individual Value, Day 7 [6]: 49.7% and 47.0% and 45.6% and 56.9% and 46.8% and 60.4% and 52.0% and 55.8% | The Closure of Wound (%), Individual Value, Day 9 [6]: 74.1% and 60.1% and 54.4% and 63.6% and 54.1% and 79.4% and 64.0% and 69.1% | The Closure of Wound (%), Individual Value, Day 11 [6]: 79.5% and 81.7% and 70.4% and 76.3% and 64.4% and 84.4% and 71.4% and 80.8% | The Closure of Wound (%), Individual Value, Day 13 [6]: 84.4% and 90.6% and 83.7% and 89.6% and 85.8% and 95.8% and 80.7% and 95.6% | The Closure of Wound (%), Individual Value, Day 15 [6]: 89.8% and 100.0% (5×) and 97.6% and 88.8% | The Closure of Wound (%), Individual Value, Day 17 [5]: 100.0% | The Closure of Wound (%), Individual Value, Day 19 [5]: 100.0% | The Closure of Wound (%), Individual Value, Day 21 [5]: 100.0% | The Closure of Wound (%), Individual Value, Day 22 [6]: 100% (2×) and 100.0% (6×) | CT50 (Days), Individual Value [6]: 6.6 Days and 8.0 Days (2×) and 7.2 Days and 8.3 Days and 6.0 Days and 7.6 Days and 6.2 Days | The Closure of Wound (%) Day 1, Mean [7]: 0.0% | The Closure of Wound (%) Day 3, Mean [8]: 29.8% | The Closure of Wound (%) Day 5, Mean [8]: 41.3% | The Closure of Wound (%) Day 7, Mean [8]: 51.8% | The Closure of Wound (%) Day 9, Mean [7]: 64.8% | The Closure of Wound (%) Day 11, Mean [7]: 76.1% | The Closure of Wound (%) Day 13, Mean [8]: 88.3% | The Closure of Wound (%) Day 15, Mean [8]: 97.0% | The Closure of Wound (%) Day 17, Mean [8]: 100.0% | The Closure of Wound (%) Day 19, Mean [7]: 100.0% | The Closure of Wound (%) Day 21, Mean [7]: 100.0% | The Closure of Wound (%) Day 22, Mean [7]: 100.0% | CT50 (Days), wound half-closure time, Mean [8]: 7.2 ± 0.3 days and 7.2 days | Animals died (mortality) (500 mg/kg × 2 SC given 4 hr and 15 min before skin punch (interval 3 hr 45 min), mice, cause of death not known, sodium salt): two out of eight animals died; also recorded: (2/8 died) | Wound healing, percentage of wound closure (FIG. 1) (pre-treated 24 hour or 4 hour prior to wound vs placebo): significant improvement in wound healing
